This is an account of results in patent US11427567B2, “Imidazolyl pyrimidinylamine compounds as CDK2 inhibitors” (Incyte Corporation, priority 2019, dated 2022).

In the assay the target is CDK2/Cyclin E1 (Homo sapiens (Human), UniProt P24941). Nature of the assay: CDK2/Cyclin E1 HTRF enzyme activity assay (Example A). Type of assay: biochemical. Particulars: 1 mM ATP. As to the method:
Assays were conducted in white 384-well polystyrene plates in a final reaction volume of 8 μL. […] HTRF signals were read after 1 hour at room temperature on a PHERAstar FS plate reader (BMG Labtech). Data was analyzed with IDBS XLFit and GraphPad Prism 5.0 software using a three or four parameter dose response curve to determine IC50 for each compound.
On the technique in general: Time-resolved FRET reads energy transfer from a long-lived donor to a nearby acceptor.
Usually IC50 stands for the midpoint of a concentration-inhibition curve. The low end stands for greater potency, the high end for weaker potency. Molecule `CCNC(C)c1ccc(-n2cnc(-c3nc(NC4CCN(S(C)(=O)=O)CC4)ncc3C(F)(F)F)c2)c(Cl)c1` (stereo not shown) [Example 273, 4-(1-(2-Chloro-4-(1-(ethylamino)ethyl)phenyl)-1H-imidazol-4-yl)-N-(1-(methylsulfonyl)piperidin-4-yl)-5-(trifluoromethyl)pyrimidin-2-amine] showed an IC50 not above 50 nM. `CS(=O)(=O)N1CCC(Nc2ncc(C(F)(F)F)c(-c3cn(-c4cccc(CN5CC[C@H](C#N)C5)c4C(F)(F)F)cn3)n2)CC1` [Example 471, (S)-1-(3-(4-(2-((1-(Methylsulfonyl)piperidin-4-yl)amino)-5-(trifluoromethyl)pyrimidin-4-yl)-1H-imidazol-1-yl)-2-(trifluoromethyl)benzyl)pyrrolidine-3-carbonitrile] returned an IC50 not above 50 nM. In the case of `CS(=O)(=O)N1CCC(Nc2ncc(C(F)(F)F)c(-c3cn(-c4ccc(CN5CC(F)C5)cc4Cl)cn3)n2)CC1` [Example 197, 4-(1-(2-Chloro-4-((3-fluoroazetidin-1-yl)methyl)phenyl)-1H-imidazol-4-yl)-N-(1-(methyl-sulfonyl)piperidin-4-yl)-5-(trifluoro-methyl)pyrimidin-2-amine] it was not above 50 nM. For the molecule `C[C@]1(O)CCN(Cc2ccc(-n3cnc(-c4nc(NC5CCN(S(C)(=O)=O)CC5)ncc4C(F)(F)F)c3)c(C(F)(F)F)c2)C1` [Example 261, (S)-3-Methyl-1-(4-(4-(2-((1-(methylsulfonyl)piperidin-4-yl)amino)-5-(trifluoromethyl)pyrimidin-4-yl)-1H-imidazol-1-yl)-3-(trifluoromethyl)benzyl) pyrrolidin-3-ol], the IC50 was not above 50 nM. Regarding `CC1(O)CN(Cc2cccc(-n3cnc(-c4nc(NC5CCN(S(C)(=O)=O)CC5)ncc4C(F)(F)F)c3)c2Cl)C1` [Example 362, 1-(2-Chloro-3-(4-(2-((1-(methylsulfonyl)piperidin-4-yl)amino)-5-(trifluoromethyl)pyrimi-din-4-yl)-1H-imidazol-yl)benzyl)-3-methylazetidin-3-ol], the IC50 was not above 50 nM. The value for `CC1CN(Cc2ccc(-n3cnc(-c4nc(N[C@H]5CCN(S(C)(=O)=O)C[C@H]5F)ncc4C(F)(F)F)c3)c(Cl)c2)C1` [Example 224, 4-(1-(2-Chloro-4-((3-methylazetidin-1-yl)methyl)phenyl)-1H-imidazol-4-yl)-N-((3R,4S)-3-fluoro-1-(methylsulfonyl)-piperidin-4-yl)-5-(trifluoromethyl)-pyrimidin-2-amine] was not above 50 nM; that for `Cc1nc(-c2nc(NC3CCN(S(C)(=O)=O)CC3)ncc2C(F)(F)F)cn1C` [Example 19, 4-(1,2-Dimethyl-1H-imidazol-4-yl)-N-(1-(methylsulfonyl)piperidin-4-yl)-5-(trifluoromethyl)pyrimidin-2-amine] was 50 to 200 nM; that for `Cc1c(-n2cnc(-c3nc(NC4CCN(S(C)(=O)=O)CC4)ncc3C(F)(F)F)c2)ccnc1C#N` [Example 292, 3-Methyl-4-(4-(2-((1-(methylsulfonyl)piperidin-4-yl)amino)-5-(trifluoromethyl)pyrimidin-4-yl)-1H-imidazol-1-yl)picolinonitrile] was not above 50 nM. In turn, `COc1nccc(-n2cnc(-c3nc(NC4CCN(S(C)(=O)=O)CC4)ncc3C(F)(F)F)c2)c1C` [Example 312, 4-(1-(2-Methoxy-3-methylpyridin-4-yl)-1H-imidazol-4-yl)-N-(1-(methylsulfonyl)piperidin-4-yl)-5-(trifluoromethyl)pyrimidin-2-amine] had a 50% inhibitory concentration (IC50) not above 50 nM. The value for `CS(=O)(=O)N1CCC(Nc2ncc(C(F)(F)F)c(-c3cn(-c4ccc(Cn5ccnn5)cc4Cl)cn3)n2)CC1` [Example 242, 4-(1-(4-((1H-1,2,3-Triazol-1-yl)methyl)-2-chlorophenyl)-1H-imidazol-4-yl)-N-(1-(methylsulfonyl)piperidin-4-yl)-5-(trifluoromethyl)pyrimidin-2-amine] was not above 50 nM; that for `CC(=O)Nc1nccc(-n2cnc(-c3nc(NC4CCN(S(=O)(=O)c5cn(C)cn5)CC4)ncc3C(F)(F)F)c2)c1C` [Example 8, N-(3-Methyl-4-(4-(2-((1-((1-methyl-1H-imidazol-4-yl)sulfonyl)piperidin-4-yl)amino)-5-(trifluoromethyl)pyrimidin-4-yl)-1H-imidazol-1-yl)pyridin-2-yl)acetamide] was not above 50 nM. In the case of `CNC(C)c1ccc(-n2cnc(-c3nc(NC4CCN(S(C)(=O)=O)CC4)ncc3C(F)(F)F)c2)c(Cl)c1` (single isomer, unassigned) [Example 276, 4-(1-(2-Chloro-4-(1-(methylamino)ethyl)phenyl)-1H-imidazol-4-yl)-N-(1-(methylsulfonyl)piperidin-4-yl)-5-(trifluoromethyl)pyrimidin-2-amine] it was not above 50 nM; in that of `CS(=O)(=O)N1CCC(Nc2ncc(C(F)(F)F)c(-c3cn(-c4cnccc4C#N)cn3)n2)CC1` [Example 67, 3-(4-(2-((1-(Methylsulfonyl)piperidin-4-yl)amino)-5-(trifluoromethyl)pyrimidin-4-yl)-1H-imidazol-1-yl)isonicotinonitrile], not above 50 nM. For the molecule `Cc1nc(CN2CCCCC2)ccc1-n1cnc(-c2nc(NC3CCN(S(C)(=O)=O)CC3)ncc2C(F)(F)F)c1` [Example 382, 4-(1-(2-Methyl-6-(piperidin-1-ylmethyl)pyridin-3-yl)-1H-imidazol-4-yl)-N-(1-(methylsulfonyl)piperidin-4-yl)-5-(trifluoromethyl)pyrimidin-2-amine], the IC50 was not above 50 nM. In the case of `CS(=O)(=O)N1CCC(Nc2ncc(C(F)(F)F)c(-c3cn(-c4cccc(C(O)C5CC5)c4Cl)cn3)n2)CC1` (stereo not shown) [Example 86, (2-chloro-3-(4-(2-((1-(methylsulfonyl)piperidin-4-yl)amino)-5-(trifluoromethyl)pyrimidin-4-yl)-1H-imidazol-1-yl)phenyl)(cyclopropyl)methanol] it was not above 50 nM; in that of `CN1CC(c2ccc(-n3cnc(-c4nc(NC5CCN(S(C)(=O)=O)CC5)ncc4C(F)(F)F)c3)c(C#N)c2)C1` [Example 428, 5-(1-Methylazetidin-3-yl)-2-(4-(2-((1-(methylsulfonyl)piperidin-4-yl)amino)-5-(trifluoromethyl)pyrimidin-4-yl)-1H-imidazol-1-yl)benzonitrile], not above 50 nM; in that of `CS(=O)(=O)N1CCC(Nc2ncc(C(F)(F)F)c(-c3cn(-c4ccc(CN5CCCC5)cc4Cl)cn3)n2)CC1` [Example 178, 4-(1-(2-Chloro-4-(pyrrolidin-1-ylmethyl)phenyl)-1H-imidazol-4-yl)-N-(1-(methylsulfonyl)piperidin-4-yl)-5-(trifluoromethyl)pyrimidin-2-amine], not above 50 nM. In the case of `Cc1c(-n2cnc(-c3nc(NC4CCN(S(=O)(=O)c5cn(C)cn5)CC4)ncc3C(F)(F)F)c2)ccnc1N` [Example 9, 4-(1-(2-Amino-3-methylpyridin-4-yl)-1H-imidazol-4-yl)-N-(1-((1-methyl-1H-imidazol-4-yl)sulfonyl)piperidin-4-yl)-5-(trifluoromethyl)pyrimidin-2-amine] it was not above 50 nM. In the case of `Cc1nc(-c2nc(NC3CCN(S(C)(=O)=O)CC3)ncc2C(F)(F)F)cn1-c1ccc(N2CCC[C@H](N(C)C)C2)cc1F` [Example 106, (S)-4-(1-(4-(3-(Dimethylamino)-piperidin-1-yl)-2-fluorophenyl)-2-methyl-1H-imidazol-4-yl)-N-(1-(methyl-sulfonyl)piperidin-4-yl)-5-(trifluoro-methyl)pyrimidin-2-amine] it was not above 50 nM; in that of `Cc1ccc(-n2cnc(-c3nc(NC4CCN(S(C)(=O)=O)CC4)ncc3C(F)(F)F)c2)c(C(F)(F)F)n1` [Example 44, 4-(1-(6-Methyl-2-(trifluoromethyl)pyridin-3-yl)-1H-imidazol-4-yl)-N-(1-(methylsulfonyl)piperidin-4-yl)-5-(trifluoromethyl)pyrimidin-2-amine], not above 50 nM; in that of `Cc1nc(-c2nc(N[C@H]3CCN(S(C)(=O)=O)C[C@H]3F)ncc2C(F)(F)F)cn1-c1ccncc1F` [Example 298, N-((3R,4S)-3-Fluoro-1-(methylsulfonyl)piperidin-4-yl)-4-(1-(3-fluoropyridin-4-yl)-2-methyl-1H-imidazol-4-yl)-5-(trifluoromethyl)pyrimidin-2-amine], not above 50 nM. Take `Cc1nc(-c2nc(NC3CCN(S(C)(=O)=O)CC3)ncc2C(F)(F)F)cn1-c1ccc(C2CN(CC3(O)CC3)C2)cc1F` [Example 422, 1-((3-(3-Fluoro-4-(2-methyl-4-(2-((1-(methylsulfonyl)piperidin-4-yl)amino)-5-(trifluoromethyl)pyrimidin-4-yl)-1H-imidazol-1-yl)phenyl)azetidin-1-yl)methyl)cyclopropan-1-ol]: the IC50 is not above 50 nM. In the case of `CS(=O)(=O)N1CCC(Nc2ncc(C(F)(F)F)c(-c3cn(-c4ccc(CN5CC(O)C5)cc4Cl)cn3)n2)CC1` [Example 199, 1-(3-Chloro-4-(4-(2-((1-(methylsulfonyl)-piperidin-4-yl)amino)-5-(trifluoromethyl)-pyrimidin-4-yl)-1H-imidazol-1-yl)benzyl)-azetidin-3-ol] it was not above 50 nM; in that of `CS(=O)(=O)N1CCC(Nc2ncc(C(F)(F)F)c(-c3cn(-c4ccc(CN5CCN6CCCC6C5)cc4Cl)cn3)n2)CC1` (stereo not shown) [Example 212, 4-(1-(2-Chloro-4-((hexahydropyrrolo-[1,2-a]pyrazin-2(1H)-yl)methyl)phenyl)-1H-imidazol-4-yl)-N-(1-(methylsulfonyl)-piperidin-4-yl)-5-(trifluoromethyl)-pyrimidin-2-amine], not above 50 nM; in that of `C[C@@]1(O)CCN(Cc2cc(F)c(-n3cnc(-c4nc(N[C@@H]5CCN(S(C)(=O)=O)C[C@H]5F)ncc4C(F)(F)F)c3)c(Cl)c2)C1` [Example 402, (R)-1-(3-Chloro-5-fluoro-4-(4-(2-(((3R,4R)-3-fluoro-1-(methylsulfonyl)piperidin-4-yl)amino)-5-(trifluoromethyl)pyrimidin-4-yl)-1H-imidazol-1-yl)benzyl)-3-methylpyrrolidin-3-ol], not above 50 nM.
